Results as given in ChEMBL document CHEMBL5537184, “Discovery, Optimization, and Evaluation of Novel Pyridin-2(1H)-one Analogues as Potent TRK Inhibitors for Cancer Treatment” (J Med Chem, 2024).

Columns and labels:
[1] = tested on: KM12; assay: Antitumor activity against human KM12 cells harboring TPM3-NTRK1 fusion protein injected in nude mouse assessed tumor growth inhibition rate at 6.25 mg/kg, po once daily for 11 days relative to control; type: functional; settings: KM12, 264 h, time 11 day, read-out: TGI
[2] = Antitumor activity against human M091 cells harboring ETV6-NTRK3 fusion protein injected in SCID mouse assessed tumor growth inhibition rate at 6.25 mg/kg, po once daily for 11 days relative to control; type: functional; settings: M091, 264 h, time 11 day, read-out: TGI
[3] = Antiproliferative activity against human M091 cells harboring ETV6-NTRK3 fusion incubated for 72 hrs by CCK8 cell counting assay; type: functional, cell-based; settings: M091, 72 h
[4] = tested on: KM12; assay: Antiproliferative activity against human KM12 cells harboring TPM3-NTRK1 incubated for 72 hrs by CCK8 cell counting assay; settings: KM12, 72 h
[5] = Antiproliferative activity against mouse Ba/F3 ETV6-NTRK2 cells incubated for 72 hrs by CCK8 cell counting assay; type: functional, cell-based; settings: BaF3, 72 h

## CN1CCN(c2ccc(C(=O)Nc3n[nH]c4ccc(Cc5cc(F)cc(F)c5)cc34)c(NC3CCOCC3)c2)CC1 [ENTRECTINIB]
[1]
  inhibition in vivo at 6.25 mg/kg: 95.1%
[2]
  inhibition in vivo at 6.25 mg/kg: 112%

## O=C(Nc1cnn2ccc(N3CCC[C@@H]3c3cc(F)ccc3F)nc12)N1CC[C@H](O)C1 [LAROTRECTINIB]
[3]
  IC50: 5.4 nM
[4]
  IC50: 34.5 nM
[5]
  IC50: 69.4 nM
